{"source": "patent US11400106B2", "about": "“Methods for inhibiting microbe growth” (priority 2018, dated 2022)", "key": {"[1]": {"tested_on": "S. aureus", "assay": "microbe, parasite or virus in culture", "settings": "for effect of 25 mM sodium bicarbonate on antibacterial activity: result in words; for MIC, S. aureus, MHB / MIC, S. aureus, MHB−: MHB in the absence of sodium bicarbonate; for MIC, S. aureus, MHB+: MHB in the presence of 25 mM sodium bicarbonate; for MIC in MHB / MIC in MHB + 25 mM bicarbonate: S. aureus (Newman strain) (MSSA)", "protocol": "(§1) In the following experiments, bacterial cells were cultured in 96-well microtiter plates in cation-adjusted Mueller-Hinton Broth (MHB) for 18 h at 37° C. The main strains used were E. coli (K-12 BW25113) (placed in stationary incubator) and S. aureus (Newman Strain) (incubated at 250 r.p.m). Knockout strains (ΔtolcC and ΔychM) were used from the Keio knockout collection (Baba et al., Construction of Escherichia coli K-12 in-frame, single-gene knockout mutants: the Keio collection. Mol Syst Biol 2, 2006 0008, doi:10.1038/msb4100050 (2006)). For MIC determination and checkerboard analyses, Clinical & Laboratory Standards Institute (CLSI) protocol was used. […] DiSC3 loading of S. aureus cells was performed as previously described (Farha et al., Collapsing the proton motive force to identify synergistic combinations against Staphylococcus aureus. Chemistry & biology 20, 1168-1178, doi:10.1016/j.chembiol.2013.07.006 (2013)). CCCP concentration of 20 μM was used. pH adjustments were made by addition of HCl or NaOH. INT assay and ATP bioluminescence assays were performed as previously described (Farha et al., Collapsing the proton motive force to identify synergistic combinations against Staphylococcus aureus. Chemistry & biology 20, 1168-1178, doi:10.1016/j.chembiol.2013.07.006 (2013)). For chemical-genomic studies, the Keio library was grown overnight in cation-adjusted MHB broth, in 384-well plates. From these, treatment plates (25 mM sodium bicarbonate, or a sterile water control) were inoculated and grown for 15 hours at 37° C., in a stationary incubator. Data was normalized according to Mangat et al (Mangat et al., Rank ordering plate data facilitates data visualization and normalization in high-throughput screening. J Biomol Screen 19, 1314-1320, doi:10.1177/1087057114534298 (2014)), with gene products and GO terms mined from EcoCyc. The GFP promoter library (Keseler et al., EcoCyc: fusing model organism databases with systems biology. Nucleic Acids Res 41, D605-612, doi:10.1093/nar/gks1027 (2013)) was grown for 18 hours at ambient temperature with the same inoculation strategy as with the Keio collection. The analysis pipeline of Zaslaver et al (Zaslaver et al., A comprehensive library of fluorescent transcriptional reporters for Escherichia coli. Nat Methods 3, 623-628, doi:10.1038/nmeth895 (2006)) was used to generate maps of promoter activity, from which lists of promoters with increased or decreased activity were compiled.\n(§2) Fold enhancement in MICs in the media supplemented with sodium bicarbonate is represented by a positive fold, whereas suppression of activity is represented by a negative fold.\n(§3) The effect of sodium bicarbonate on the activity of additional antibacterial agents was investigated. Clinical isolates of various bacteria were obtained from the ATCC and the IHMA.\n(§4) The effect of sodium bicarbonate on the activity of cationic antiseptic agents was investigated. Clinical isolates of various bacteria were obtained from the ATCC and the IHMA."}, "[2]": {"tested_on": "E. coli", "assay": "microbe, parasite or virus in culture", "format": "cell-based, Escherichia coli", "protocol": "as §1, §2, §3, §4"}, "[3]": {"settings": "antiseptic agents, fold shift in MIC"}, "[4]": {"settings": "antibiotic agents, fold shift in MIC, MHB− vs MHB+"}, "[5]": {"settings": "antibiotic agents, MHB in the absence of sodium bicarbonate"}, "[6]": {"settings": "antibiotic agents, MHB in the presence of 25 mM sodium bicarbonate"}}, "note": "Like-named read-outs stand apart in the source and are kept apart here. Marks after values point to notes of the source that are not given here."}
{"molecule": "COc1cc(Cc2cnc(N)nc2N)cc(OC)c1OC", "note": "[trimethoprim]", "values": [{"measurement": "effect of 25 mM sodium bicarbonate on antibacterial activity", "setting": "[1]; S. aureus", "result": "remained largely unchanged"}, {"measurement": "effect of 25 mM sodium bicarbonate on antibacterial activity", "setting": "[2]", "result": "remained largely unchanged"}]}
{"molecule": "Benzalkonium chloride", "values": [{"measurement": "MIC, S. aureus, MHB", "setting": "[1]; antiseptic agents", "result": "0.5 μg of antimicrobial agent/mL of buffer"}, {"measurement": "MIC, S. aureus, MHB+", "setting": "[1]; antiseptic agents", "result": "0.25 μg of antimicrobial agent/mL of buffer"}, {"measurement": "Fold, S. aureus", "setting": "[1]; [3]", "result": 2}, {"measurement": "Fold, E. coli", "setting": "[2]", "result": 4}, {"measurement": "MIC, E. coli, MHB", "setting": "[2]", "result": "32 μg of antimicrobial agent/mL of buffer"}, {"measurement": "MIC, E. coli, MHB+", "setting": "[2]", "result": "8 μg of antimicrobial agent/mL of buffer"}]}
{"molecule": "Colistin", "values": [{"measurement": "MIC, S. aureus, MHB−", "setting": "[1]; antibiotic agents", "result": ">128 μg of antimicrobial agent/mL of buffer"}, {"measurement": "MIC, S. aureus, MHB+", "setting": "[1]; antibiotic agents", "result": ">128 μg of antimicrobial agent/mL of buffer"}, {"measurement": "Fold, S. aureus", "setting": "[1]; [4]", "result": 1}, {"measurement": "MIC, E. coli, MHB+", "setting": "[2]", "result": "0.5 μg of antimicrobial agent/mL of buffer"}, {"measurement": "MIC, E. coli, MHB−", "setting": "[2]; [5]", "result": "0.5 μg of antimicrobial agent/mL of buffer"}, {"measurement": "Fold, E. coli", "setting": "[2]; [4]", "result": 1}]}
{"molecule": "Furadinozoline", "values": [{"measurement": "MIC, S. aureus, MHB−", "setting": "[1]; antibiotic agents", "result": "32 μg of antimicrobial agent/mL of buffer"}, {"measurement": "MIC, S. aureus, MHB+", "setting": "[1]; antibiotic agents", "result": "16 μg of antimicrobial agent/mL of buffer"}, {"measurement": "Fold, S. aureus", "setting": "[1]; [4]", "result": 2}, {"measurement": "MIC, E. coli, MHB−", "setting": "[2]; [5]", "result": "4 μg of antimicrobial agent/mL of buffer"}, {"measurement": "MIC, E. coli, MHB+", "setting": "[2]; [6]", "result": "4 μg of antimicrobial agent/mL of buffer"}, {"measurement": "Fold, E. coli", "setting": "[2]; [4]", "result": 1}]}
{"molecule": "Gramicidin", "values": [{"measurement": "MIC, S. aureus, MHB−", "setting": "[1]; antibiotic agents", "result": "1 μg of antimicrobial agent/mL of buffer"}, {"measurement": "MIC, S. aureus, MHB+", "setting": "[1]; antibiotic agents", "result": "0.25 μg of antimicrobial agent/mL of buffer"}, {"measurement": "Fold, S. aureus", "setting": "[1]; [4]", "result": 4}, {"measurement": "MIC, E. coli, MHB−", "setting": "[2]; [5]", "result": ">128 μg of antimicrobial agent/mL of buffer"}, {"measurement": "MIC, E. coli, MHB+", "setting": "[2]; [6]", "result": ">128 μg of antimicrobial agent/mL of buffer"}, {"measurement": "Fold, E. coli", "setting": "[2]; [4]", "result": 1}]}
{"molecule": "Hyaluronic acid", "values": [{"measurement": "MIC in MHB", "setting": "[1]", "result": 4, "unit": "µg/mL"}, {"measurement": "MIC in MHB + 25 mM bicarbonate", "setting": "[1]", "result": 0.0625, "unit": "µg/mL"}, {"measurement": "enhancement of antimicrobial activity in the presence of bicarbonate", "setting": "[1]; S. aureus, 25 mM sodium bicarbonate", "result": 64, "unit": "fold"}, {"measurement": "enhancement of antimicrobial activity in the presence of bicarbonate", "setting": "[2]", "result": 64, "unit": "fold"}]}
{"molecule": "Lysozyme", "values": [{"measurement": "MIC in MHB", "setting": "[1]", "result": ">256** μg/mL"}, {"measurement": "MIC in MHB + 25 mM bicarbonate", "setting": "[1]", "result": ">256** μg/mL"}, {"measurement": "effect of 25 mM sodium bicarbonate on antibacterial activity", "setting": "[2]; E. coli, result in words", "result": "enhanced"}]}
{"molecule": "Neomycin", "values": [{"measurement": "Fold, S. aureus", "setting": "[1]", "result": 4}, {"measurement": "MIC, S. aureus, MHB−", "setting": "[1]", "result": 2}, {"measurement": "MIC, S. aureus, MHB+", "setting": "[1]", "result": 0.5}, {"measurement": "Fold, E. coli", "setting": "[2]", "result": 4}]}
{"molecule": "Nisin", "values": [{"measurement": "MIC, S. aureus, MHB−", "setting": "[1]; antibiotic agents", "result": ">128 μg of antimicrobial agent/mL of buffer"}, {"measurement": "MIC, S. aureus, MHB+", "setting": "[1]; antibiotic agents", "result": ">128 μg of antimicrobial agent/mL of buffer"}, {"measurement": "Fold, S. aureus", "setting": "[1]; [4]", "result": 1}, {"measurement": "MIC, E. coli, MHB−", "setting": "[2]; [5]", "result": ">128 μg of antimicrobial agent/mL of buffer"}, {"measurement": "MIC, E. coli, MHB+", "setting": "[2]; [6]", "result": ">128 μg of antimicrobial agent/mL of buffer"}, {"measurement": "Fold, E. coli", "setting": "[2]; [4]", "result": 1}]}
{"molecule": "Polyhexanide", "values": [{"measurement": "MIC, S. aureus, MHB", "setting": "[1]; antiseptic agents", "result": "0.5 μg of antimicrobial agent/mL of buffer"}, {"measurement": "MIC, S. aureus, MHB+", "setting": "[1]; antiseptic agents", "result": "0.25 μg of antimicrobial agent/mL of buffer"}, {"measurement": "Fold, S. aureus", "setting": "[1]; [3]", "result": 2}, {"measurement": "Fold, E. coli", "setting": "[2]", "result": 2}, {"measurement": "MIC, E. coli, MHB", "setting": "[2]", "result": "1 μg of antimicrobial agent/mL of buffer"}, {"measurement": "MIC, E. coli, MHB+", "setting": "[2]", "result": "0.5 μg of antimicrobial agent/mL of buffer"}]}
{"molecule": "Polymyxin B", "values": [{"measurement": "Fold, S. aureus", "setting": "[1]", "result": 8}, {"measurement": "MIC, S. aureus, MHB−", "setting": "[1]", "result": 256}, {"measurement": "MIC, S. aureus, MHB+", "setting": "[1]", "result": 32}, {"measurement": "effect of 25 mM sodium bicarbonate on antibacterial activity", "setting": "[1]; S. aureus", "result": "enhanced"}, {"measurement": "Fold, E. coli", "setting": "[2]", "result": "−2"}]}
{"molecule": "Polyvinylpyrrolidone iodine complex", "values": [{"measurement": "MIC, S. aureus, MHB", "setting": "[1]; antiseptic agents", "result": ">128 μg of antimicrobial agent/mL of buffer"}, {"measurement": "MIC, S. aureus, MHB+", "setting": "[1]; antiseptic agents", "result": ">128 μg of antimicrobial agent/mL of buffer"}, {"measurement": "Fold, S. aureus", "setting": "[1]; [3]", "result": 1}, {"measurement": "MIC, E. coli, MHB", "setting": "[2]; antiseptic agents, MHB in the absence of sodium bicarbonate", "result": ">128 μg of antimicrobial agent/mL of buffer"}, {"measurement": "MIC, E. coli, MHB+", "setting": "[2]; antiseptic agents, MHB in the presence of 25 mM sodium bicarbonate", "result": ">128 μg of antimicrobial agent/mL of buffer"}, {"measurement": "Fold, E. coli", "setting": "[2]; [3]", "result": 1}]}
{"molecule": "Teicoplanin", "values": [{"measurement": "MIC, S. aureus, MHB−", "setting": "[1]; antibiotic agents", "result": "1 μg of antimicrobial agent/mL of buffer"}, {"measurement": "MIC, S. aureus, MHB+", "setting": "[1]; antibiotic agents", "result": "2 μg of antimicrobial agent/mL of buffer"}, {"measurement": "Fold, S. aureus", "setting": "[1]; [4]", "result": "−2"}, {"measurement": "MIC, E. coli, MHB+", "setting": "[2]", "result": "128 μg of antimicrobial agent/mL of buffer"}, {"measurement": "MIC, E. coli, MHB−", "setting": "[2]; [5]", "result": "128 μg of antimicrobial agent/mL of buffer"}, {"measurement": "Fold, E. coli", "setting": "[2]; [4]", "result": 1}]}
